These results are taken from patent US10196344B2, “Glaucocalyxin a derivative and preparation method and application thereof” (SUZHOU PHARMAVAN CANCER RESEARCH CENTER CO., LTD., priority 2015, dated 2019).

The conditions of data set [1]: background statement; cited from earlier work.
Data set [2] has as its system MCF-7 cell line of breast cancer. The data set is described as follows: Cell proliferation assay (MTT), MCF-7. Particulars: 1-100 μmol/L, 48 h, FIG. 7-8. In kind it is cell-based. The protocol: (§1) Cell Proliferation Assay (MTT): The experiment assaying the inhibition of dimethylamino glaucocalyxin A hydrochloride salt (hereinafter referred to as GH02) and glaucocalyxin A (i.e. GLA) on cell proliferation of cancer cell lines was performed as follows: cells of cancer cell lines were adjusted to a density of 10^4/100 μL and were seeded into 96-well plates at 100 μL per well and cultured overnight until the cells were completely adherent and grown up to 70-80% confluence. […] Subsequently, the supernatant was removed, 150 μL DMSO was added to each well and incubated with shaking for 10 min, and then the absorbance was measured at 490 nm on a microplate reader. Inhibitory rate of the cell proliferation=[(absorbance of the control group−absorbance of blank)−(absorbance of the medication group−absorbance of blank)]/(absorbance of the control group−absorbance of blank)% As shown in FIG. 4 to FIG. 6, MDA-MB-231 and MCF-7 are cell lines of breast cancer, SGC-7901 is a cell line of gastric cancer, U251 is a cell line of glioma, and A549 is a cell line of lung cancer.

For data set [3] the following is noted: background statement; cited from earlier work. The source holds these as a separate data set.
The subject of another data set is U251 cell line of glioma. The data set is described as follows: Cell proliferation assay (MTT), U251. The format is cell-based. Particulars: 1-100 μmol/L, 48 h, FIG. 7-8. The protocol: as §1
Data set [4] has as its system SGC-7901 cell line of gastric cancer. Nature of the data set: Cell proliferation assay (MTT), SGC-7901. In kind it is cell-based. Particulars: 1-100 μmol/L, 48 h, FIG. 7-8. The procedure:
as §1

In data set [5] the test system is A549 cell line of lung cancer. Nature of the data set: Cell proliferation assay (MTT), A549. The format is cell-based. The following applies: 1-100 μmol/L, 48 h, FIG. 7-8. The procedure: as §1
In data set [6] the test system is MDA-MB-231 breast cancer cell line. The data set is described as follows: Cell proliferation assay (MTT), MDA-MB-231. In kind it is cell-based. Particulars: 48 h; for Inhibitory rate of the cell proliferation versus concentration: 1-100 μmol/L; for IC50 for the inhibition of proliferation, compared among five cell lines: MTT. The protocol:
Cell Proliferation Assay (MTT): The experiment assaying the inhibition of dimethylamino glaucocalyxin A hydrochloride salt (hereinafter referred to as GH02) and glaucocalyxin A (i.e. GLA) on cell proliferation of cancer cell lines was performed as follows: cells of cancer cell lines were adjusted to a density of 10^4/100 μL and were seeded into 96-well plates at 100 μL per well and cultured overnight until the cells were completely adherent and grown up to 70-80% confluence. The mother liquid of GH02 and GLA (both of which concentrations were 100 mM) were diluted with complete medium, respectively, to final concentrations of 1, 3.125, 6.25, 12.5, 25, 50, 100 μmol/L, and then such diluted solutions were added into wells of 96-well plates, with each concentration being performed in 4 replicates, and the group without cells acting as blank control, and then incubated in the incubator at […]. After incubation for 48 h, MTT was added to each well to a final concentration of 0.5 mg/ml and further incubated in the incubator at […] for 4 h. Subsequently, the supernatant was removed, 150 μL DMSO was added to each well and incubated with shaking for 10 min, and then the absorbance was measured at 490 nm on a microplate reader. Inhibitory rate of the cell proliferation=[(absorbance of the control group−absorbance of blank)−(absorbance of the medication group−absorbance of blank)]/(absorbance of the control group−absorbance of blank)% As shown in FIG. 4 to FIG. 6, MDA-MB-231 and MCF-7 are cell lines of breast cancer, SGC-7901 is a cell line of gastric cancer, U251 is a cell line of glioma, and A549 is a cell line of lung cancer.

The next data set in a line: Water solubility. In kind it is physicochemical. Particulars: found by the inventors by means of experiments.
Data set [7] is described as follows: Oral bioavailability / in vivo pharmacokinetics. Particulars: when used as a drug; found by the inventors by means of experiments.

Molecules are shown by their SMILES. “Also recorded” adds a separate entry of the source. Where two headings read alike, the source gives them in different places.

In the case of `C=C1C(=O)C23C(O)C1CCC2[C@]1(C)CCC(=O)C(C)(C)[C@H]1C[C@H]3O` (stereo partly drawn) [GLA, Kaur-16-ene-3,15-dione,(7α, 14R)—], the bioavailability in vivo result in data set [1] is reported as “low bioavailability”. Moreover, in data set [1], the half-life in vivo entry is given as “short half-life”. Besides, the “Inhibitory rate of the cell proliferation versus concentration” value in data set [2] is “increased with the increase of the concentration of GLA”; with U251 cell line of glioma it was “increased with the increase of the concentration of GLA”; in data set [4], “increased with the increase of the concentration of GLA”; in data set [5] it was “increased with the increase of the concentration of GLA”; in [6] (FIG. 7-8) it was “increased with the increase of the concentration of GLA; also recorded: highest inhibitory rate”. For the same molecule, the water solubility entry in [3] is “poor water solubility”. Moreover, the “IC50 for the inhibition of proliferation, compared among five cell lines” value in data set [6] (FIG. 4-6) is “lowest IC50 values”.
On to `CN(C)CC1C(=O)C23C(O)C1CCC2[C@]1(C)CCC(=O)C(C)(C)[C@H]1C[C@H]3O.Cl` (some centres unmarked) [GH02, dimethylamino glaucocalyxin A hydrochloride], for which the “Inhibitory rate of the cell proliferation versus concentration” value in [2] is “increased with the increase of the concentration of GH02”; in the data set on U251 cell line of glioma it was “increased with the increase of the concentration of GH02”; in [4], “increased with the increase of the concentration of GH02”; in data set [5], “increased with the increase of the concentration of GH02”; in [6] (FIG. 7-8, hydrochloride) it was “increased with the increase of the concentration of GH02; also recorded: highest inhibitory rate”. For the same molecule, the water solubility result in “Water solubility” is recorded as “good water solubility”. For the same molecule, the oral bioavailability entry in [7] is listed as “high oral bioavailability”. The “IC50 for the inhibition of proliferation, compared among five cell lines” value in data set [6] (FIG. 4-6, hydrochloride) is listed as “lowest IC50 values”.
